Converted amounts (≈) assume the structure as drawn. Where two headings read alike, the source gives them in different places.
Tests used:
[1] = MTT dye reduction cytotoxicity assay on parallel uninfected MT-2 cultures; format: cell-based, human; details: human
Method: (§1) Compounds to be evaluated for antiviral activity were dissolved in DMSO and diluted at least 1:50 in culture medium, to 2× the highest concentration to be tested. Further, three-fold serial dilutions of the compound in culture medium were performed directly in U bottom microtiter plates (Nunc). After compound dilution, MT-2 cells, which had been sub-cultured one day prior to infection, were added to a final concentration of 5×10^5 cells/ml (1×10^5 cells/well). Cells were incubated with compounds in a volume of 150 μl for 30 minutes at 37° C. in a CO2 incubator. For evaluation of antiviral potency, appropriate dilutions of HIV RF virus stock (50 μl) were added to culture wells containing the cells and the dilutions of the compounds to be tested. Eight wells per plate were left uninfected with 50 μl of medium added instead of virus, while eight wells were infected in the absence of any antiviral compound. For evaluation of compound toxicity, parallel plates were cultured without virus infection. After three days of culture at 37° C. in a humidified chamber inside a CO2 incubator, all but 25 μl of medium/well was removed from the HIV infected plates. […] Alkaline phosphatase activity was detected by addition of 100 μl of substrate detection buffer, consisting of: 0.2 mM 4-methylumbelliferyl phosphate (MUBP, JBL Scientific) in 2.5M diethanolamine pH 8.9 (JBL), 10 mM MgCl2, 5 mM Zinc acetate dihydrate, and 5 mM n-hydroxyethyl-ethylene-diamine-triaceticacid. The plates were incubated at 37° C. and the fluorescence produced measured in a microplate fluorometer (Dynateck) exciting at 365 nm and emitting at 450 nm. […]
(§2) In order to assess the potential cytotoxicity of compounds being evaluated for antiviral efficacy, an MTT dye reduction assay was performed at the end of the three day culture period on the parallel, uninfected, but compound treated cultures. […] Solubilized MTT dye product was quantitated using an ELISA microplate reader at 570 nm. […]

[2] = system: HIV RF (HIV-1 RNA) in MT-2 cells; test: HIV-1 RNA microtiter plate compound evaluation assay in HIV-1 infected MT-2 cells (gag capture/reporter probes); format: cell-based, HIV-1 (strain RF)
Method: Compounds to be evaluated for antiviral activity were dissolved in DMSO and diluted at least 1:50 in culture medium, to 2× the highest concentration to be tested. Further, three-fold serial dilutions of the compound in culture medium were performed directly in U bottom microtiter plates (Nunc). After compound dilution, MT-2 cells, which had been sub-cultured one day prior to infection, were added to a final concentration of 5×10^5 cells/ml (1×10^5 cells/well). Cells were incubated with compounds in a volume of 150 μl for 30 minutes at 37° C. in a CO2 incubator. For evaluation of antiviral potency, appropriate dilutions of HIV RF virus stock (50 μl) were added to culture wells containing the cells and the dilutions of the compounds to be tested. Eight wells per plate were left uninfected with 50 μl of medium added instead of virus, while eight wells were infected in the absence of any antiviral compound. For evaluation of compound toxicity, parallel plates were cultured without virus infection. After three days of culture at 37° C. in a humidified chamber inside a CO2 incubator, all but 25 μl of medium/well was removed from the HIV infected plates. 37 μl of 5M GED containing the biotinylated capture oligo was added to the remaining medium and settled cells in each well to a final concentration of 3M GED, 50 nM biotinylated capture oligo. Hybridization of the biotinylated capture oligo to HIV-1 RNA in the cell lysate was carried out in the same microplate well by sealing the plate and incubating for 16-20 hours in a 37° C. incubator. 124 μl of distilled water was added to each well to dilute the hybridization reaction three-fold, and 150 μl aliquots of this diluted mixture was transferred to streptavidin coated microtiter plate wells. The biotin oligo-RNA complex solution was incubated with the immobilized streptavidin for two hours at room temperature, after which the plates were washed six times with DuPont ELISA plate wash buffer (phosphate buffered saline (PBS)/0.05% Tween 20) with a Denley plate washer. A second hybridization was carried out by adding 120 μl of hybridization cocktail containing 4× standard saline citrate (0.15M NaCl, 0.015 sodium citrate) (SSC), 0.66% Triton X-100 and 6.66% deionized formamide, 1 mg/ml bovine serum albumin (BSA) and 5 nM `gag` AP reporter oligo to each well. After hybridization for one hour at 37° C., the plate was again washed six times in PBS/0.05% Tween 20. Alkaline phosphatase activity was detected by addition of 100 μl of substrate detection buffer, consisting of: 0.2 mM 4-methylumbelliferyl phosphate (MUBP, JBL Scientific) in 2.5M diethanolamine pH 8.9 (JBL), 10 mM MgCl2, 5 mM Zinc acetate dihydrate, and 5 mM n-hydroxyethyl-ethylene-diamine-triaceticacid. The plates were incubated at 37° C. and the fluorescence produced measured in a microplate fluorometer (Dynateck) exciting at 365 nm and emitting at 450 nm. A standard curve, prepared by adding known amounts of pDAB 72 in vitro RNA transcript to wells containing lysed, uninfected cells, was run on each microtiter plate.
In order to standardize the virus innoculum used in the evaluation of compounds for anti-vital efficacy, a dose response to ddC was determined at several different dilutions of each virus stock to be used. A dilution of each stock of HIV RF virus stock which gaven an IC90 for ddC of 0.2 ug/ml was selected and used in subsequent compound evaluation assays.
The microtiter plate compound evaluation assay described in Example 9 above was employed to evaluate the efficacy of cyclohexamide, di-deoxycytidine (ddC) and XJ104 (N,N'-bis[tert-butoxycarbonyl-valyl]-1,6-diphenyl-2S,5S-diamino-3R,4R-dihydroxy(triphenylphosphine adduct)-hexane) as described in WO91/18866, the disclosure of which is hereby incorporated by reference, utilizing the HIV-1 `gag` capture and reporter probes described in Example 2.
In the figures below the IC90 and TC50 are indicated. […]

MT-2 cells = test: MTT dye reduction cytotoxicity assay on parallel uninfected MT-2 cultures; format: cell-based, human; details: uninfected MT-2 cells, three days culture; 50% reduction of absorbance at 570 nm in MTT assay; 4320 min
Method: as §1, §2

[3] = TC50 to IC90 ratio of greater than 3 regarded as antiviral efficacy

C[C@@H]1C[C@@H]([C@H](O)CC2CC(=O)NC(=O)C2)C(=O)[C@@H](C)C1 [cyclohexamide]
CC50 at 72 h ([1]; uninfected MT-2 cells, three days culture, 50% reduction of absorbance at 570 nm in MTT assay, read-out: TC50): 0.45 µg/mL (≈ 1.6 µM)
IC90 ([2]; Human immunodeficiency virus 1, MT2, 72 h, read-out: IC90 in the RNA assay): 0.45 µg/mL (≈ 1.6 µM)
specific anti-viral efficacy (IC90 in RNA assay compared with TC50 in MTT assay) [2, 3]: no specific anti-viral efficacy is apparent

Nc1ccn([C@H]2CC[C@@H](CO)O2)c(=O)n1 [ddC, di-deoxycytidine]
CC50 at 72 h ([1]; mt-2 cells): > 50 µg/mL
specific anti-viral efficacy (IC90 in RNA assay compared with TC50 in MTT assay) [2]: displays anti-viral efficacy
IC90 ([2]; Human immunodeficiency virus 1, MT2, 72 h, HIV RF infected MT-2 cells, three days culture, 90% reduction of HIV-1 RNA, FIGS. 4-6, read-out: IC90 in the RNA assay): 0.13 µg/mL (≈ 0.615 µM)
IC90 ([2]; Human immunodeficiency virus 1, MT2, selected dilution of each HIV RF virus stock, read-out: IC90 for ddC used to standardize virus innoculum): 0.2 µg/mL (≈ 0.947 µM)

N,N'-bis[tert-butoxycarbonyl-valyl]-1,6-diphenyl-2S,5S-diamino-3R,4R-dihydroxy(triphenylphosphine adduct)-hexane [XJ104]
TC50 (MT-2 cells): 2 µg/mL
IC90 in the RNA assay ([2]; HIV RF infected MT-2 cells, three days culture, 90% reduction of HIV-1 RNA, FIGS. 4-6): 30 µg/mL
specific anti-viral efficacy (IC90 in RNA assay compared with TC50 in MTT assay) [2, 3]: no specific anti-viral efficacy is apparent
